Where two headings read alike, the source gives them in different places.
What was measured:
foxtail, giant [1] = experiment: Test A preemergence; assay type: in vivo, Setaria faberi; settings: Setaria faberi, pre-emergence, 240 h, read-out: Plant response rating, Foxtail, Giant; for pest or weed control at 125 g/ha: 125 g ai/ha, visual injury after 10 days, 0 to 100 scale, 0 is no effect, 100 is complete control; for pest or weed control at 500 g/ha: 500 g ai/ha, 0 to 100 scale (0 no effect, 100 complete control), 10 days
Summary of the method: (§1)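 Visual injury ratings on a 0–100 scale (100 = complete control) versus untreated controls, taken 10 days after treatment in greenhouse. Preemergence: directed soil spray onto seeded loam/sand. Postemergence: foliar application at one- to two-leaf stage, plants 2–10 cm. Formulation: non-phytotoxic solvent plus surfactant.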

corn [2] = experiment: Test A preemergence; assay type: in vivo, Zea mays; settings: Zea mays, pre-emergence, 240 h; for Corn plant response rating (crop injury, 0 = no effect, 100 = complete kill) at 125 g/ha: 125 g ai/ha; for Corn plant response rating (crop injury, 0 = no effect, 100 = complete kill) at 500 g/ha: 500 g ai/ha
Summary of the method: as §1

corn [3] = experiment: Test A postemergence; assay type: in vivo, Zea mays; settings: Zea mays, post-emergence, 240 h, postemergence, 10 days, 0 to 100 scale (0 no effect, 100 complete control); for plant injury at 125 g/ha: 125 g ai/ha, read-out: Corn plant response rating; for Corn plant response rating (crop injury, 0 = no effect, 100 = complete kill) at 500 g/ha: 500 g ai/ha, visual injury
Summary of the method: as §1

kochia = experiment: Test A postemergence; assay type: in vivo, Bassia scoparia; settings: Bassia scoparia, post-emergence, 240 h, postemergence, 10 days, 0 to 100 scale (0 no effect, 100 complete control); for pest or weed control at 125 g/ha: 125 g ai/ha, read-out: Kochia plant response rating; for pest or weed control at 500 g/ha: 500 g ai/ha, visual injury, read-out: Plant response rating, Kochia
Summary of the method: as §1

ryegrass, Italian = experiment: Test A postemergence; assay type: in vivo, Lolium multiflorum; settings: Lolium multiflorum, post-emergence, 240 h, postemergence, 10 days, 0 to 100 scale (0 no effect, 100 complete control); for pest or weed control at 125 g/ha: 125 g ai/ha, read-out: Ryegrass, Italian plant response rating; for pest or weed control at 500 g/ha: 500 g ai/ha, visual injury, read-out: Plant response rating, Ryegrass, Italian
Summary of the method: as §1

foxtail, giant [4] = experiment: Test A postemergence; assay type: in vivo, Setaria faberi; settings: Setaria faberi, post-emergence, 240 h, postemergence, 10 days, 0 to 100 scale (0 no effect, 100 complete control); for pest or weed control at 125 g/ha: 125 g ai/ha, read-out: Foxtail, Giant plant response rating; for pest or weed control at 500 g/ha: 500 g ai/ha, visual injury, read-out: Plant response rating, Foxtail, Giant
Summary of the method: as §1

wheat [5] = experiment: Test A postemergence; assay type: in vivo, Triticum aestivum; settings: Triticum aestivum, post-emergence, 240 h, postemergence, 10 days, 0 to 100 scale (0 no effect, 100 complete control); for plant injury at 125 g/ha: 125 g ai/ha, read-out: Wheat plant response rating; for plant injury at 500 g/ha: 500 g ai/ha, visual injury, read-out: Plant response rating, Wheat
Summary of the method: as §1

soybean = experiment: Test A postemergence; assay type: in vivo, Glycine max; settings: Glycine max, post-emergence, 240 h, postemergence, 10 days, 0 to 100 scale (0 no effect, 100 complete control); for plant injury at 125 g/ha: 125 g ai/ha, read-out: Soybean plant response rating; for plant injury at 500 g/ha: 500 g ai/ha, visual injury, read-out: Plant response rating, Soybean
Summary of the method: as §1

oat, wild = experiment: Test A preemergence; assay type: in vivo, Avena fatua; settings: Avena fatua, pre-emergence, 240 h, read-out: Plant response rating, Oat, Wild; for pest or weed control at 125 g/ha: 125 g ai/ha; for pest or weed control at 500 g/ha: 500 g ai/ha
Summary of the method: as §1

barnyardgrass = experiment: Test B flooded paddy test; assay type: in vivo, Echinochloa crus-galli; settings: Echinochloa crus-galli, 312 h, 250 g ai/ha, Flood, 13 days, 0 to 100 scale (0 no effect, 100 complete control); read-out: Plant response rating, Barnyardgrass
Summary of the method: (§2)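 2-leaf stage; pots flooded 3 cm over soil; compound dosed into paddy water; depth kept constant. Greenhouse, 13 d. Visual rating vs controls, 0 (no effect)–100 (complete control). Dash = no result.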

ducksalad = experiment: Test B flooded paddy test; assay type: in vivo, Heteranthera limosa; settings: Heteranthera limosa, 312 h, 250 g ai/ha, Flood, 13 days, 0 to 100 scale (0 no effect, 100 complete control); read-out: Plant response rating, Ducksalad
Summary of the method: as §2

rice = experiment: Test B flooded paddy test; assay type: in vivo, Oryza sativa; settings: Oryza sativa, 312 h; 250 g ai/ha, Flood, 13 days, 0 to 100 scale (0 no effect, 100 complete control); read-out: Plant response rating, Rice
Summary of the method: as §2

wheat [6] = experiment: Test A preemergence; assay type: in vivo, Triticum aestivum; settings: Triticum aestivum, pre-emergence, 240 h, read-out: Plant response rating, Wheat; for plant injury at 125 g/ha: 125 g ai/ha; for plant injury at 500 g/ha: 500 g ai/ha
Summary of the method: as §1

ragweed = experiment: Test A preemergence; assay type: in vivo, Ambrosia artemisiifolia; settings: Ambrosia artemisiifolia, pre-emergence, 240 h, read-out: Plant response rating, Ragweed; for pest or weed control at 125 g/ha: 125 g ai/ha; for pest or weed control at 500 g/ha: 500 g ai/ha
Summary of the method: as §1

galium = experiment: Test A postemergence; assay type: in vivo, Galium aparine; settings: Galium, post-emergence, 240 h, postemergence, 10 days, 0 to 100 scale (0 no effect, 100 complete control)
Summary of the method: as §1

[7] = visual injury after 10 days, 0 to 100 scale, 0 is no effect, 100 is complete control
[8] = 0 to 100 scale (0 no effect, 100 complete control), 10 days

COc1ccc(-n2cnc(C(C)C)n2)cc1C(=O)N1C[C@H](C)Oc2c(Cl)cccc21 [Compound 84, [(2S)-8-chloro-2-methyl-2,3-dihydro-1,4-benzoxazin-4-yl]-[5-(3-isopropyl-1,2,4-triazol-1-yl)-2-methoxy-phenyl]methanone] gave a pest or weed control at 125 g/ha (foxtail, giant [1]) of 100%, a pest or weed control at 500 g/ha (foxtail, giant [1]) of 100% and a Corn plant response rating (crop injury, 0 = no effect, 100 = complete kill) at 125 g/ha (corn [2]; [7]) of 20%. The Corn plant response rating (crop injury, 0 = no effect, 100 = complete kill) at 500 g/ha (corn [2]; [8]) was 20%, the plant injury at 125 g/ha (corn [3]) was 70% and the Corn plant response rating (crop injury, 0 = no effect, 100 = complete kill) at 500 g/ha (corn [3]) was 90%. The pest or weed control at 125 g/ha (kochia) was 90%, the pest or weed control at 500 g/ha (kochia) was 90% and the pest or weed control at 125 g/ha (ryegrass, Italian) was 100%. For the same compound, the pest or weed control at 500 g/ha (ryegrass, Italian) was 100%, the pest or weed control at 125 g/ha (foxtail, giant [4]) was 80% and the pest or weed control at 500 g/ha (foxtail, giant [4]) was 100%. For the same compound, the plant injury at 125 g/ha (wheat [5]) was 40%, the plant injury at 500 g/ha (wheat [5]) was 50% and the plant injury at 125 g/ha (soybean) was 100%. It also gave a plant injury at 500 g/ha (soybean) of 100%, a pest or weed control at 125 g/ha (oat, wild; [7]) of 90% and a pest or weed control at 500 g/ha (oat, wild; [8]) of 90%. It also gave a pest or weed control at 250 g/ha (barnyardgrass) of 65%, a pest or weed control at 250 g/ha (ducksalad) of 60% and a plant injury at 250 g/ha (rice) of 0%. It also gave a plant injury at 125 g/ha (wheat [6]; [7]) of 60%, a plant injury at 500 g/ha (wheat [6]; [8]) of 90% and a pest or weed control at 125 g/ha (ragweed; [7]) of 70%. The pest or weed control at 500 g/ha (ragweed; [8]) was 100%.

CCc1ncn(-c2ccc(OC)c(C(=O)N3C[C@H](C)Oc4c(Cl)cccc43)c2)n1 [Compound 88, [(2S)-8-Chloro-2,3-dihydro-2-methyl-4H-1,4-benzoxazin-4-yl][5-(3-ethyl-1H-1,2,4-triazol-1-yl)-2-methoxyphenyl]methanone] was tested, and the pest or weed control at 125 g/ha (foxtail, giant [1]) was 100%, the pest or weed control at 500 g/ha (foxtail, giant [1]) was 100% and the Corn plant response rating (crop injury, 0 = no effect, 100 = complete kill) at 125 g/ha (corn [2]; [7]) was 40%. It also gave a Corn plant response rating (crop injury, 0 = no effect, 100 = complete kill) at 500 g/ha (corn [2]; [8]) of 40%, a plant injury at 125 g/ha (corn [3]) of 90% and a Corn plant response rating (crop injury, 0 = no effect, 100 = complete kill) at 500 g/ha (corn [3]) of 90%. For the same compound, the pest or weed control at 125 g/ha (kochia) was 90%, the pest or weed control at 500 g/ha (kochia) was 100% and the pest or weed control at 125 g/ha (ryegrass, Italian) was 80%. It also gave a pest or weed control at 500 g/ha (ryegrass, Italian) of 100%, a pest or weed control at 125 g/ha (foxtail, giant [4]) of 90% and a pest or weed control at 500 g/ha (foxtail, giant [4]) of 90%. The plant injury at 125 g/ha (wheat [5]) was 40%, the plant injury at 500 g/ha (wheat [5]) was 90% and the plant injury at 125 g/ha (soybean) was 100%. The plant injury at 500 g/ha (soybean) was 100%, the pest or weed control at 125 g/ha (oat, wild; [7]) was 90% and the pest or weed control at 500 g/ha (oat, wild; [8]) was 90%. It also gave a pest or weed control at 250 g/ha (barnyardgrass) of 45%, a pest or weed control at 250 g/ha (ducksalad) of 55% and a plant injury at 250 g/ha (rice) of 10%. For the same compound, the plant injury at 125 g/ha (wheat [6]; [7]) was 20%, the plant injury at 500 g/ha (wheat [6]; [8]) was 40% and the pest or weed control at 125 g/ha (ragweed; [7]) was 60%. The pest or weed control at 500 g/ha (ragweed; [8]) was 100%.

For CC(C)c1ncn(-c2cc3c(c(C(=O)N4C[C@H](C)Oc5c(Cl)cccc54)c2)OCC3)n1 [Compound 147], the Corn plant response rating (crop injury, 0 = no effect, 100 = complete kill) at 125 g/ha (corn [2]; 0 to 100 scale) was 0%, the Corn plant response rating (crop injury, 0 = no effect, 100 = complete kill) at 500 g/ha (corn [2]; [7]) was 10% and the plant injury at 125 g/ha (corn [3]) was 10%. For the same compound, the Corn plant response rating (crop injury, 0 = no effect, 100 = complete kill) at 500 g/ha (corn [3]) was 90%, the pest or weed control at 125 g/ha (kochia) was 60% and the pest or weed control at 500 g/ha (kochia) was 90%. The pest or weed control at 125 g/ha (ryegrass, Italian) was 50%, the pest or weed control at 500 g/ha (ryegrass, Italian) was 80% and the pest or weed control at 125 g/ha (galium; 125 g ai/ha, read-out: Galium plant response rating) was 100%. It also gave a pest or weed control at 500 g/ha (galium; 500 g ai/ha, visual injury, read-out: Plant response rating, Galium) of 100%, a plant injury at 125 g/ha (wheat [5]) of 10% and a plant injury at 500 g/ha (wheat [5]) of 60%. For the same compound, the plant injury at 125 g/ha (soybean) was 100%, the plant injury at 500 g/ha (soybean) was 100% and the pest or weed control at 125 g/ha (oat, wild; 0 to 100 scale) was 20%. It also gave a pest or weed control at 500 g/ha (oat, wild; [7]) of 90%, a pest or weed control at 250 g/ha (barnyardgrass) of 0% and a pest or weed control at 250 g/ha (ducksalad) of 0%. It also gave a plant injury at 250 g/ha (rice) of 0%, a plant injury at 125 g/ha (wheat [6]; 0 to 100 scale) of 20% and a plant injury at 500 g/ha (wheat [6]; [7]) of 50%. It also gave a pest or weed control at 125 g/ha (ragweed; 0 to 100 scale) of 0% and a pest or weed control at 500 g/ha (ragweed; [7]) of 0%.
